According to PubChem BioAssay (NCI):
Several values for one entry are separate records, joined by “and”; a condition that tells them apart may be missing. Equal values may be shown once.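 Where inhibition never reached the appropriate level, the endpoint shown equals the highest concentration tested. Otherwise, values were interpolated linearly from a five-concentration, 48-hour dose response in 96-well plates. GI50 is the concentration that inhibits growth by half. TGI denotes the concentration required for complete inhibition of growth.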 Where a SMILES comes first, the peptide text is derived from it. Bridges are numbered along the chain shown (N, C = ends). [ ]: non-standard residue; d: D form. The star is where a group is joined. ξ: configuration not given here. X26 = O=C(/C=C/C=C/C=C/C=C/C=C/C(=O)*)NC1=C(O)CCC1=O; NMeA = CN[C@@H](C)C(=O)O; ξF = NC(Cc1ccccc1)C(=O)O; ξA = CC(N)C(=O)O

Key:
Assay in all cases: NCI tumour cell line growth inhibition, 48 h
UACC-62 melanoma = tested on: UACC-62 melanoma
COLO 205 colon = tested on: COLO 205 colon
ACHN renal = tested on: ACHN renal
SN12C renal = tested on: SN12C renal
CCRF-CEM leukemia = tested on: CCRF-CEM leukemia
SNB-75 CNS = tested on: SNB-75 CNS
SK-MEL-2 melanoma = tested on: SK-MEL-2 melanoma

SMILES	TGI (UACC-62 melanoma) [µM]	TGI (COLO 205 colon) [µM]	TGI (ACHN renal) [µM]	TGI (SN12C renal) [µM]	TGI (CCRF-CEM leukemia) [µM]	TGI (SNB-75 CNS) [µM]	TGI (SK-MEL-2 melanoma) [µM]	GI50 (SNB-75 CNS)
Cc1ccc(CC[P+](=O)CCc2ccc(C)nc2)cn1	> 100	> 100	> 100	> 100	> 100			
CCc1c[n+]([O-])c(C)cc1[N+](=O)[O-]	> 100	29.6	47.3	> 100	> 100	> 100	> 100	
O=C(O)c1cc(-c2ccc3c(O)c(O)ccc3c2)ccc1O	> 75	> 75	> 75	30.8	33.6	> 75	> 75	
Cc1cc2c([N+](=O)[O-])cc3c(c2o1)C(=O)C=CC3=O	28.9	4.88	3.77	12.2		> 61.5	35.3	
CN(Cc1ccccc1)c1cc(=O)n(C)c(=O)[nH]1	> 100	> 100	> 100	> 100	> 100		> 100	
COc1ccc(-c2c3c([nH]c(=S)c2C#N)CC(C)(C)CC3=O)cc1	> 100		> 100	> 100	> 100		> 100	
CC(=O)Oc1cc(C(F)(F)F)ccc1C(=O)OC1(C)OC(=O)c2ccc(C(F)(F)F)cc2O1 (configuration not stated)	> 100	> 100	> 100	> 100	> 100	> 100		
N#CC(N=Nc1ccc(Cl)cc1)c1nc2ccccc2o1 (configuration not stated)	> 100	> 100	> 100	> 100	45.6		88.7	
CC1CN=C(N(C(=O)Nc2ccc(F)c(Cl)c2)c2ccccc2)S1 (configuration not stated)		38.9	87.9	49.9	> 100	63.7	32.8	
CC1NC(=O)[C@H](C)N(C)C(=O)[C@@H]2CCCN2C(=O)[C@@H](NC(=O)C(Cc2ccccc2)NC(=O)/C=C/C=C/C=C/C=C/C=C/C(=O)NC2=C(O)CCC2=O)COC(=O)[C@@H]2CCCN2C1=O (some centres not stated) (X26-[ξF]SP[NMeA][ξA]P; ester 2-C)	> 100	> 100	> 100	> 100	> 100	> 100	> 100	
Oc1[nH]c2ccc(Br)cc2c1N=NC(=S)Nc1ccc(F)cc1	13.8	22.4	18	> 100		30	25.9	
CCOC(=O)C1(C(=O)OCC)COS(=O)OC1		54.5	> 100	> 100	> 100	> 100		
O=C(NC(COC(=O)C(Cc1ccccc1)NC(=O)c1ccccc1)Cc1ccccc1)c1ccccc1 (configuration not stated)	> 50		> 50			> 50	> 50	
CCOC(=O)c1nc2ccc(C(F)(F)F)cc2nc1Oc1ccc(C#N)cc1	36.5	88.5	> 100		> 100	28	30.5	
COc1ccc(/C=C2\C[C@H]3[C@@H]4CCC5=C/C(=N/O)CC[C@]5(C)[C@H]4CC[C@]3(C)\C2=N\O)cc1OC	> 100		> 100	> 100	> 100	> 100	54.5	
O=c1[nH]cnc2c1ncn2[C@@H]1C[C@@H]1CO	> 100	> 100	> 100	> 100	> 100	> 100	> 100	
COC(=O)c1cc2c(cc1CC1Cc3cc4c(cc3C1)CCC4)CCC2		> 100	> 100	> 100	45.3	> 100	54	
C(=Nc1ccc(-c2nc3ccccc3o2)cc1)c1ccco1		> 100	> 100	> 100		> 100	> 100	
Cc1ccc([N+](=O)[O-])cc1N=NC(=O)NNc1cc([N+](=O)[O-])ccc1C	33.2	> 100			40.2	66.2	> 100	

SMILES	TGI (UACC-62 melanoma) [µM]	TGI (COLO 205 colon) [µM]	TGI (ACHN renal) [µM]	TGI (SN12C renal) [µM]	TGI (CCRF-CEM leukemia) [µM]	TGI (SNB-75 CNS) [µM]	TGI (SK-MEL-2 melanoma) [µM]	GI50 (SNB-75 CNS)
COC(=O)CCc1cc(OC)c2c(c1)[C@H](C(=O)OC)[C@@H](c1ccc(O)c(OC)c1)O2	> 100	> 100	> 100	> 100	> 100	> 100	84.6	
COC(=O)CN1c2nc(C#N)c(C#N)nc2N(CC(=O)OC)c2nc(C#N)c(C#N)nc21	42.4	15.3	5.72	> 100	> 24.3	30.4	> 100	
CC(C)=CCC/C(C)=C/COC(C)(C)C1=CCC(C)CC1 (configuration not stated) (tested in a mixture with another compound)	> 100	> 100	> 100	> 100		> 100		
COc1nc2ncc([C@@H](OC(C)=O)[C@@H](COC(C)=O)OC(C)=O)nc2c(=O)[nH]1	> 100	> 100	> 100	> 100	> 100	> 100	> 100	> 100 µM and 11.3 µM
CCCCNC(=S)N/N=C/c1cccc(C)n1	68.3	> 100	68	> 100	40.2	> 100		
O=C(Nc1ccccc1F)c1cc2ccc(O)cc2oc1=Nc1ccccc1F	5.9	61.7	5.3		3.79		4.05	
C/C1=C\CC[C@@]2(C)O[C@@H]2C[C@@H](C2(C)CO2)CC/C(C)=C/CC1 (some centres not stated)	40.4	33.2	35.1	33.5	> 100	93.7	71.8	
NC(CC1=CS(=O)(=O)c2ccc(Cl)cc21)C(=O)O (configuration not stated)	> 100	> 100	> 100	> 100		> 100	> 100	
O=[N+]([O-])c1ccc(/C=C/c2cc(-c3ccccc3)nc3ccc4ccccc4c23)cc1	> 100	> 100	> 100	> 100	> 100	> 100		
N/C(=N\S(=O)(=O)c1c(C(F)(F)F)cccc1C(F)(F)F)Nc1ccc(Cl)cc1	50.5	33.1	56	78.1		> 100	29.3	
Clc1ccc(CSCCc2ccncc2)cc1Cl	29.6	27.2	66	42.2	44.7	77.6	30.8	
Cc1cc(-c2nc3ccccc3s2)ccc1NC(=O)[C@@H](N)CCCCN	29.2	24.8	30.8	32.9	22.5	13	30	
CC1(C)C2CC(=O)C1(C)C(O)C2Br (configuration not stated)	> 100		> 100	> 100	> 100		> 100	
CC(C)(C)OC(=O)NCCC(N)=S	> 100	> 100	> 100	> 100	> 100	> 100		
COc1ccc(S(=O)(=O)N2C(=O)CCC2C(=O)NN)cc1 (configuration not stated)	> 100	> 100	> 100	> 100	> 100	> 100	> 100	
CCCCn1cnc2c(c(CC#N)nn2-c2ccccc2)c1=N	53.1	92.8	> 100	> 100	> 100	> 100	62.1	
CCC1=NC(C(F)(F)F)(C(F)(F)F)N=C(N2CCOCC2)O1	> 100	> 100	> 100	> 100	> 100	> 100	> 100	
COC(=O)c1c2c(cc3c1CCC3)CCC2	> 100	> 100	> 100	> 100	53.3	> 100	64.3	
N#CCc1nc(-c2ccccc2)n[nH]1	> 100	> 100	> 100	> 100	> 100	> 100	> 100	

SMILES	TGI (UACC-62 melanoma) [µM]	TGI (COLO 205 colon) [µM]	TGI (ACHN renal) [µM]	TGI (SN12C renal) [µM]	TGI (CCRF-CEM leukemia) [µM]	TGI (SNB-75 CNS) [µM]	TGI (SK-MEL-2 melanoma) [µM]	GI50 (SNB-75 CNS)
O=C1CC(C(O)(C(F)(F)F)C(F)(F)Cl)CCC1C(O)(C(F)(F)F)C(F)(F)Cl (configuration not stated)	> 10	> 10	> 10	> 10	> 10	> 10	> 10	
O=C(CNc1c(Cl)cccc1Cl)NC1C=Cc2ccc(S(=O)(=O)Nc3c(Cl)cccc3Cl)cc2C1=O (configuration not stated)	> 100	> 100	> 100	> 100	> 100	> 100	> 100	
C=CCNC(=S)N=Nc1c(O)[nH]c2ccc([N+](=O)[O-])cc12	> 100	> 100	> 100	> 100	41.5		> 100	
CNc1ncnc2c1cnn2COCC(O)CO (configuration not stated)	> 100	> 100	> 100	> 100	> 100	> 100	> 100	
CC(=O)O/N=C/c1c2ccccc2cc2ccccc12	> 100	> 100	68.5	> 100	> 100	51.5		
CCOC(=O)C(Cl)(Cl)/S(=N\S(=O)(=O)c1ccccc1)NC(=O)c1ccccc1 (configuration not stated)	> 100	> 100	> 100	> 100	> 100	> 100	> 100	
C[C@]12CC[C@@H]3c4ccc(O)cc4CC[C@H]3[C@@H]1C/C(=C\c1ccncc1)[C@@H]2O	25.6	19.8	28.3	> 100	> 100	23.6	37.4	
COc1cc(-c2cc(=O)c3cc4c(=O)cc(-c5cc(OC)c(OC)c(OC)c5)oc4cc3o2)cc(OC)c1OC	> 64.5	> 100	> 85.1	> 100	> 100	32.3	41.3	
Nc1nc(Cl)cc(NCC2(CO)CCC(CCc3ccccc3)C2)n1 (configuration not stated)	28.3	27.3	29.9	31.1	40.1	39.4	34.5	
S=C(/N=c1\sc(Nc2ccc(Cl)cc2)nc2sc3c(c12)CCN(N1CCc2c(sc4nc(Nc5ccc(Cl)cc5)s/c(=N\C(=S)Nc5ccc(Cl)cc5)c24)C1)C3)Nc1ccc(Cl)cc1	48	> 100	> 100	38.5		64.5	52.2	
O=c1ccn(C2OC(CO)C(P(=O)(O)O)C2O)c(=O)[nH]1 (configuration not stated)	> 100		> 100	> 100	> 100	> 100	> 100	
NCCCN1CCN(CCCNc2ccc3nnn4c5ccccc5c(=O)c2c34)CC1	33.7	19.4	73.7	30.7	35.7	48.3	36.1	
O=C(Oc1cc(=O)c(OC(=O)c2ccccc2)co1)c1ccccc1	> 100	> 100	> 100	> 100		> 100	> 100	
O=C(NCCCN(CCCCN(CCCNC(=O)C(F)(F)F)Cc1ccc2ccccc2c1)Cc1ccc2ccccc2c1)C(F)(F)F	5.41		> 100	> 100	> 100	> 100	> 100	
CSc1c(C#N)c(N)n(-c2ccc(C)cc2)c(=O)c1C#N	> 100	> 100		> 100	> 100	> 100	> 100	
CCOC(CNCCC(=O)OC)OCC	> 10	> 10	> 10	> 10	> 10	> 10	> 10	
O=C(Cc1ccccc1)NN1C(=O)/C(=C\c2ccccc2)SC1=Nc1ccccc1	> 100	> 100	> 100	> 100		> 100	> 100	
C[C@@H](Cl)[C@H]1CCCN(Cc2ccc(Br)cc2)C1	> 12.5	> 12.5	> 12.5		> 12.5	> 12.5	> 12.5	
Cc1c(N2C(=O)C(Cl)C2c2ccc(Cl)cc2)c(=O)n(-c2ccccc2)n1C (configuration not stated)	> 100	> 100	83.2	> 100	> 100		> 100	
